Data from ChEMBL document CHEMBL4118176, “N-aryl-piperidine-4-carboxamides as a novel class of potent inhibitors of MALT1 proteolytic activity” (Bioorg Med Chem Lett, 2018).
≈ marks a conversion by molar mass, not a printed value.

What was measured:
[1] = Solubility of the compound in buffer at pH 6.8; assay type: physicochemical
[2] = Solubility of the compound in buffer at pH 4; assay type: physicochemical
[3] = biological target: Mucosa-associated lymphoid tissue lymphoma translocation protein 1 (Homo sapiens, UniProt Q9UDY8); experiment: Inhibition of cIAP2 fused MALT1 (unknown origin) expressed in HEK293 cells assessed as suppression of NF-kB activation after 24 hrs by luciferase reporter gene assay; assay type: cell-based
[4] = biological target: T1, Mucosa-associated lymphoid tissue lymphoma translocation protein 1 (Homo sapiens, UniProt Q9UDY8); experiment: Inhibition of MALT1 (unknown origin) using Ac-Trp-Leu-Arg-Ser-Arg'Cys(PT14)-NH2 as substrate preincubated for 60 mins followed by substrate addition measured after 60 mins by fluorescence assay
T1 sequence (Q9UDY8 whole entry): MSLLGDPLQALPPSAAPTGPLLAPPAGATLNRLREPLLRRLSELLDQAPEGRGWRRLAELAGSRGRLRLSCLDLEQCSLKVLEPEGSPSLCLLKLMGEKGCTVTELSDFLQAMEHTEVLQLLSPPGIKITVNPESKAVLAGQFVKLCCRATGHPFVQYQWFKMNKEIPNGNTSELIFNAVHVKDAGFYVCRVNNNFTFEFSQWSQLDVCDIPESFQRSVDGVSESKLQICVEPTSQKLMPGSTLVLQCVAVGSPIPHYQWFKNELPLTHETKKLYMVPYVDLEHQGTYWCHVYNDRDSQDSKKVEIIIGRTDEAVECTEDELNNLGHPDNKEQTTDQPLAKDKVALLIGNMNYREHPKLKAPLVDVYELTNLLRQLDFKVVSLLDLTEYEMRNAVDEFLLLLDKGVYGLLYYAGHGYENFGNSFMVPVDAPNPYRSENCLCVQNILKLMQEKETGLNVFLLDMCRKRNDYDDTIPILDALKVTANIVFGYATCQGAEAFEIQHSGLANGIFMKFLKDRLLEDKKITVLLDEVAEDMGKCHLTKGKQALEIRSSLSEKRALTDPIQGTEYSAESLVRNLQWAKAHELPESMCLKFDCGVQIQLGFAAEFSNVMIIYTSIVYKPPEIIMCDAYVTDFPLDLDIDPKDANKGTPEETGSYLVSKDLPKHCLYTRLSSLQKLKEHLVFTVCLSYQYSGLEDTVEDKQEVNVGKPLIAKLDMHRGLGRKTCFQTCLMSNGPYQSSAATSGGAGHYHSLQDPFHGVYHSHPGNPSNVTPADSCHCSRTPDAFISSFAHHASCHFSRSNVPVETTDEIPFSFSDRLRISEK

[5] = Clearance in rat liver microsomes; assay type: ADME, microsome; conditions: read-out: CLH
[6] = Apparent permeability from apical to basolateral side in human Caco2 cells; assay type: ADME, cell-based; conditions: Caco-2
BJAB = experiment: Antiproliferative activity against human BJAB cells after 72 hrs by CellTiterGlo assay; assay type: functional, cell-based
[7] = Half life in rat at 1 mg/kg, iv or 3 mg/kg, po; assay type: ADME, organism-based; conditions: in vivo
[8] = Volume of distribution at steady state in rat at 1 mg/kg, iv or 3 mg/kg, po; assay type: ADME, organism-based; conditions: in vivo, read-out: Vdss
[9] = AUC in rat at 1 mg/kg, iv; assay type: ADME, organism-based; conditions: in vivo
[10] = biological target: T1, Mucosa-associated lymphoid tissue lymphoma translocation protein 1; experiment: Inhibition of MALT1 in human OCI-LY3 cells assessed a decrease in BCL10 cleavage after 24 hrs by ELISA; assay type: cell-based
[11] = Clearance in rat at 1 mg/kg, iv or 3 mg/kg, po; assay type: ADME, organism-based; conditions: in vivo
OCI-Ly3 = experiment: Antiproliferative activity against human OCI-LY3 cells after 72 hrs by CellTiterGlo assay; assay type: functional, cell-based; conditions: OCI-Ly3, 72 h
[12] = biological target: T1, Mucosa-associated lymphoid tissue lymphoma translocation protein 1; experiment: Inhibition of MALT1 in PMA-stimulated human Jurkat T cells assessed as reduction in IL2 level pretreated for 30 mins followed by PMA-stimulation measured after 5.5 hr by bioluminescence assay; assay type: cell-based
[13] = Oral bioavailability in rat at 3 mg/kg; assay type: ADME, organism-based; conditions: in vivo
[14] = Clearance in rat hepatocytes assessed per 10^6 cells; assay type: ADME, cell-based, Hepatocyte

Nc1cccnc1N1CCC(C(=O)Nc2ccc(-n3nccn3)c(Cl)c2)CC1
solubility [1]: < 4 µM | solubility [2]: 48 µM (≈ 19.1 µg/mL) | IC50 [3]: 110 nM | IC50 [4]: 35 nM | CLint scaled [5]: 102 mL/min/kg | Papp A→B [6]: 19.4 ×10⁻⁶ cm/s | EC50 (BJAB): > 10000 nM | half-life [7]: 18 min | Vd [8]: 4.1 L/kg | AUC [9]: 0.161 µM·h | EC50 [10]: 190 nM | clearance [11]: 259 mL/min/kg | EC50 (OCI-Ly3): 2000 nM

O=C(Nc1ccc(F)c(Cl)c1)C1CCN(c2nccnc2Cl)CC1
IC50 [3]: 290 nM | IC50 [4]: 100 nM | EC50 [10]: 400 nM

O=C(Nc1ccc(F)c(Cl)c1)C1CCN(c2ccccc2)CC1
IC50 [3]: 3200 nM | IC50 [4]: 820 nM | EC50 [10]: 9200 nM

O=C(Nc1cccc(Cl)c1)C1CCN(c2ncccc2Cl)CC1
IC50 [3]: 1590 nM | IC50 [4]: 210 nM | EC50 [10]: 3400 nM

O=C(Nc1cnc(-n2nccn2)c(Cl)c1)C1CCN(c2ncccc2Cl)CC1
IC50 [3]: 90 nM | IC50 [4]: 4 nM | IC50 [12]: 50 nM | EC50 (BJAB): > 10000 nM | EC50 [10]: 230 nM | EC50 (OCI-Ly3): 1400 nM

COc1ncc(NC(=O)C2CCN(c3ncccc3Cl)CC2)cc1Cl
IC50 [3]: 190 nM | IC50 [4]: 13 nM | EC50 [10]: 450 nM

O=C(Nc1ccccc1)C1CCN(c2ncccc2Cl)CC1
IC50 [4]: 4700 nM

O=C(NC1CCCCC1)C1CCN(c2ncccc2Cl)CC1
IC50 [4]: > 100000 nM

Nc1cccnc1N1CCC(C(=O)Nc2cnc(-n3nccn3)c(Cl)c2)CC1
IC50 [3]: 90 nM | IC50 [4]: 7 nM | IC50 [12]: 80 nM | EC50 (BJAB): > 10000 nM | EC50 [10]: 560 nM | EC50 (OCI-Ly3): 3600 nM

O=C(Nc1ccc(F)c(Cl)c1)C1CCN(c2ncccc2Cl)CC1
IC50 [3]: 1350 nM | IC50 [4]: 28 nM | EC50 [10]: 1500 nM

CC(C)CN1CCC(C(=O)Nc2ccc(F)c(Cl)c2)CC1
IC50 [4]: > 100000 nM

N#Cc1cccnc1N1CCC(C(=O)Nc2ccc(F)c(Cl)c2)CC1
IC50 [3]: 2700 nM | IC50 [4]: 420 nM | EC50 [10]: 2100 nM

Cc1cn(-c2cc(NC(=O)C3CCN(c4ncccc4Cl)CC3)cc(C(F)(F)F)c2)cn1
solubility [1]: 16 µM (≈ 7.42 µg/mL) | solubility [2]: 690 µM (≈ 320 µg/mL) | IC50 [3]: 3000 nM | IC50 [4]: 340 nM | CLint scaled [5]: 60.2 mL/min/kg | bioavailability [13]: 46% | Papp A→B [6]: 7.2 ×10⁻⁶ cm/s | half-life [7]: 144 min | Vd [8]: 8.7 L/kg | AUC [9]: 0.623 µM·h | clearance [11]: 56 mL/min/kg | CLH [14]: 18.8 µL/min/1e6 cells

Nc1cccnc1N1CCC(C(=O)Nc2ccc(F)c(Cl)c2)CC1
IC50 [3]: 420 nM | IC50 [4]: 100 nM | EC50 [10]: 540 nM

CNC(=O)c1ncn(-c2ccc(NC(=O)C3CCN(c4ncccc4Cl)CC3)cc2Cl)n1
solubility [1]: < 4 µM | solubility [2]: 8 µM (≈ 3.79 µg/mL) | IC50 [3]: 140 nM | IC50 [4]: 21 nM | CLint scaled [5]: 59.8 mL/min/kg | Papp A→B [6]: 8.2 ×10⁻⁶ cm/s | half-life [7]: 36 min | Vd [8]: 7.5 L/kg | AUC [9]: 0.125 µM·h | EC50 [10]: 210 nM | clearance [11]: 282 mL/min/kg | CLH [14]: 228 µL/min/1e6 cells

O=C(Nc1ccc(F)c(Cl)c1)C1CCN(Cc2ccc(F)cc2)CC1
IC50 [4]: > 100000 nM

O=C(Nc1ccc(F)c(Cl)c1)C1CCN(c2ccccn2)CC1
IC50 [4]: 1900 nM

N#Cc1ccnc(N2CCC(C(=O)Nc3ccc(F)c(Cl)c3)CC2)c1
IC50 [4]: 9000 nM

Cc1nc(C)n(-c2ccc(NC(=O)C3CCN(c4ncccc4[N+](=O)[O-])CC3)cc2Cl)n1
solubility [1]: 7 µM (≈ 3.19 µg/mL) | solubility [2]: 170 µM (≈ 77.5 µg/mL) | IC50 [3]: 640 nM | IC50 [4]: 184 nM | CLint scaled [5]: 29 mL/min/kg | bioavailability [13]: 46% | half-life [7]: 30 min | Vd [8]: 1.1 L/kg | AUC [9]: 0.914 µM·h | clearance [11]: 43 mL/min/kg | CLH [14]: 4.1 µL/min/1e6 cells

O=C(Nc1ccc(F)c(Cl)c1)C1CCN(c2ncccn2)CC1
IC50 [3]: 3100 nM | IC50 [4]: 1620 nM | EC50 [10]: 5400 nM

Cc1ccc(NC(=O)C2CCN(c3ncccc3Cl)CC2)cc1Cl
solubility [1]: < 4 µM | solubility [2]: < 4 µM | IC50 [3]: 3700 nM | IC50 [4]: 54 nM | CLint scaled [5]: 81 mL/min/kg | half-life [7]: 120 min | Vd [8]: 21.4 L/kg | AUC [9]: 0.143 µM·h | clearance [11]: 320 mL/min/kg | CLH [14]: 173 µL/min/1e6 cells
